Laboratory results from patent publication US8063220B2, “Sulfonyl-quinoline derivatives” (Richter Gedeon Nyrt., priority 2007, dated 2011).
pKi: −log10 of the molar value.

Legend:
[1] = target: T1, rat mGluR5 (Rattus norvegicus, UniProt P31424); experiment: MGluR5 receptor binding test ([3H]-M-MPEP displacement, rat cerebro-cortical membrane preparation); conditions: rat mGluR5, [3H]-M-MPEP 2 nM; read-out: mGlu5 Ki
T1 construct: Rat cerebro-cortical membrane preparation was used; from tissue; host or cells: rat cerebral cortex (membrane preparation)
T1 sequence (P31424 21-1203): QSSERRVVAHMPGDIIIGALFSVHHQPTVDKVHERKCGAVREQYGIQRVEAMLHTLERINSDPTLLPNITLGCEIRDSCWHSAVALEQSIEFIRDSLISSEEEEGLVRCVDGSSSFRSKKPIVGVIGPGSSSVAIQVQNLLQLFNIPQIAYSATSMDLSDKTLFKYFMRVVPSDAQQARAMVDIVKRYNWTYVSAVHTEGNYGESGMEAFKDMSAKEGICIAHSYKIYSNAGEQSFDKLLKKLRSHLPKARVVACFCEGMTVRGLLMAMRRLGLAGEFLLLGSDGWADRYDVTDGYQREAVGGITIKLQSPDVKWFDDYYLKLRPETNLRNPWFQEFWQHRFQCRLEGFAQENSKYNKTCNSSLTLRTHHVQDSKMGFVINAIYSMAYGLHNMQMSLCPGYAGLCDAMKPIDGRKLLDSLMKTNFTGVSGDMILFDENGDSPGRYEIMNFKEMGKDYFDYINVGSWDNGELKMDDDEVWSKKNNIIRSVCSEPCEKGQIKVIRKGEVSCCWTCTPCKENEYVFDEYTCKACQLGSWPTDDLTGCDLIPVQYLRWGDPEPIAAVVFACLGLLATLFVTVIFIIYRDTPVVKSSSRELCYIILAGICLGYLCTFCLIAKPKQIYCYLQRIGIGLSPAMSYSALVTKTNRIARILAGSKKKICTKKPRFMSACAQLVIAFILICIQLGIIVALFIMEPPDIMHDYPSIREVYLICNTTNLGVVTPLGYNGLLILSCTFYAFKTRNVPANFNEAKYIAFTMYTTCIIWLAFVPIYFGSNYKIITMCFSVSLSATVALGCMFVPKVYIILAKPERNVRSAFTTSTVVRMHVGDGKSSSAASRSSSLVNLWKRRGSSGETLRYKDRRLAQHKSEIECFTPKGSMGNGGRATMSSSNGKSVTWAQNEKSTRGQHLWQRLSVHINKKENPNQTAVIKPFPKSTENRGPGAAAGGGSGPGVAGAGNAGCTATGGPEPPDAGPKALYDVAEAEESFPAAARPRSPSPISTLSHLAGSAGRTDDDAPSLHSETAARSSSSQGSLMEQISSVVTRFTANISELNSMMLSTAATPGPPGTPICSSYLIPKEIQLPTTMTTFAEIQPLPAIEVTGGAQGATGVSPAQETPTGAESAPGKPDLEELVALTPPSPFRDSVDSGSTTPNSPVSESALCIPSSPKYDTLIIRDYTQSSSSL
Protocol: Rat cerebro-cortical membrane preparation was used to determine the binding characteristics of reference compounds and novel compounds to the rat mGluR5. The A18 cell line expressing hmGluR5a (purchased from Euroscreen) was used to determine binding characteristics of the chemical compounds to the human mGluR5a receptor. [3H]-M-MPEP (2 nM) was used as radioligand. The nonspecific binding was determined in the presence of 10 μM M-MPEP.

[2] = target: T2, rat mGluR1 (Rattus norvegicus, UniProt P23385); experiment: MGluR1 receptor binding test ([3H]R214127 displacement, rat cerebellar membrane preparation); conditions: rat mGluR1, [3H]R214127 3 nM; read-out: mGlu1 Ki
T2 construct: rat cerebellar membrane preparation was used; from tissue; host or cells: rat cerebellum (membrane preparation)
T2 sequence (P23385 19-1199): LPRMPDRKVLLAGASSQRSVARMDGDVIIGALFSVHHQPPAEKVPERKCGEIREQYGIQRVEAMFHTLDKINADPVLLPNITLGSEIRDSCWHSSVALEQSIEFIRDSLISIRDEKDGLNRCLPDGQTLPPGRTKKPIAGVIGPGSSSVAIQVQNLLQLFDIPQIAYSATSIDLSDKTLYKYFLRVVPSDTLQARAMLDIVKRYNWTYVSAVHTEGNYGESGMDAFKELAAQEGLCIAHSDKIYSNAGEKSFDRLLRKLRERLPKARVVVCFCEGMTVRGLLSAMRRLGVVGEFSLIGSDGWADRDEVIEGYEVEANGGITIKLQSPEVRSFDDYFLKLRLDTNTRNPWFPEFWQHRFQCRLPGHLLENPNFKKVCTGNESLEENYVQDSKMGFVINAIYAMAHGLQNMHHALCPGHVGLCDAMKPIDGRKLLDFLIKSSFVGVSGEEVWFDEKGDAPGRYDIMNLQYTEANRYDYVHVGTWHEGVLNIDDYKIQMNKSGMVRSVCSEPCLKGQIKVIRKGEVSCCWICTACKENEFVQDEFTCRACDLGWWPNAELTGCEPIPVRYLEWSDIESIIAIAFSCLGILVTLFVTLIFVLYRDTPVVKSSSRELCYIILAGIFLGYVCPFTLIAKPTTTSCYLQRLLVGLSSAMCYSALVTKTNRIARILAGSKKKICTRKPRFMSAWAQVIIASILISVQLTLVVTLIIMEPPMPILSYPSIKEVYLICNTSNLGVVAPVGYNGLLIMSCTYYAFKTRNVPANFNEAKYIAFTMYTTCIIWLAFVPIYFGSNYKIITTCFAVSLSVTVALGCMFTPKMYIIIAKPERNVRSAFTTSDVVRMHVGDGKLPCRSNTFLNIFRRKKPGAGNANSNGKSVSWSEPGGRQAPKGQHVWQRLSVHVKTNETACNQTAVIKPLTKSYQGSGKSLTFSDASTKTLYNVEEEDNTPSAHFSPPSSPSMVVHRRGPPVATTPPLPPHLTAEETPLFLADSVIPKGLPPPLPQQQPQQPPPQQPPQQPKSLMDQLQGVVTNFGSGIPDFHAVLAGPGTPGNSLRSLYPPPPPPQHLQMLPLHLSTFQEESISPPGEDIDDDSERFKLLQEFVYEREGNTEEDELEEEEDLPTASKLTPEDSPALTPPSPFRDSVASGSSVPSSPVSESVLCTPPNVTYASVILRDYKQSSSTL
Protocol: MGluR1 receptor binding tests were performed according to modified method of Lavreysen et al. (Mol. Pharm., 2003, 63, 1082). Based on the high homology between the human and rat mGluR1 receptors, rat cerebellar membrane preparation was used to determine the binding characteristics of reference compounds and novel compounds to the rat mGluR1. [3H]R214127 (3 nM) was used as radioligand and the nonspecific binding was determined in the presence of 1 μM of R214127.
IC-50 values were determined from displacement curves by nonlinear regression analysis and were converted to Ki values using the equation method of Cheng and Prusoff (Biochem. Pharmacol., 1973, 22, 3099).

pKi [1] | pKi [2] | Structure (SMILES)
> 6.70 | 6.30 to 6.70 | O=S(=O)(c1ccc(F)c(F)c1)c1cnc2ccc(F)cc2c1-c1cccc(F)c1 [Compound 150]
> 6.70 | 6.30 to 6.70 | N#Cc1cccc(S(=O)(=O)c2cnc3cc(F)ccc3c2-c2cccc(F)c2)c1 [Compound 38]
> 6.70 | < 6.30 | O=S(=O)(c1ccc(F)c(F)c1)c1cnc2c(F)c(Cl)ccc2c1-c1ccc(Cl)cc1 [Compound 204]
> 6.70 | < 6.30 | N#Cc1cc(F)cc(S(=O)(=O)c2cnc3ccccc3c2-c2ccc(F)c(F)c2)c1 [Compound 266]
6.30 to 6.70 | < 6.30 | COc1ccc(-c2c(S(=O)(=O)c3ccc(F)cc3)cnc3cc(F)ccc23)cc1 [Compound 10]
< 6.30 | < 6.30 | O=S(=O)(c1ccc(F)cc1)c1cnc2ccc(F)cc2c1-c1ccc(F)cc1 [Compound 28]
< 6.30 | < 6.30 | O=S(=O)(c1cc(F)cc(F)c1)c1cnc2cc(Cl)c(F)cc2c1-c1ccc(Cl)cc1 [Compound 201]
6.30 to 6.70 | < 6.30 | N#Cc1ccc2c(-c3ccccc3F)c(S(=O)(=O)c3cc(F)cc(F)c3)cnc2c1 [Compound 199]
> 6.70 | 6.30 to 6.70 | O=S(=O)(c1ccc(F)c(Cl)c1)c1cnc2c(F)cccc2c1-c1cccc(Cl)c1 [Compound 229]
> 6.70 | < 6.30 | N#Cc1cc(F)cc(S(=O)(=O)c2cnc3cc(F)ccc3c2-c2ccc(Cl)cc2)c1 [Compound 268]
> 6.70 | < 6.30 | O=S(=O)(c1cc(Cl)cc(Cl)c1)c1cnc2cc(F)ccc2c1-c1ccccc1F [Compound 257]
> 6.70 | < 6.30 | COc1ccc(-c2c(S(=O)(=O)c3cc(Cl)cc(Cl)c3)cnc3c(F)cccc23)cc1 [Compound 107]
> 6.70 | > 6.70 | N#Cc1cc(S(=O)(=O)c2cnc3cc(Cl)ccc3c2-c2cccc(Cl)c2)ccc1F [Compound 242]
> 6.70 | 6.30 to 6.70 | O=S(=O)(c1cccc(F)c1)c1cnc2cc(F)ccc2c1-c1cccc(F)c1 [Compound 15]
> 6.70 | > 6.70 | O=S(=O)(c1ccc(Cl)c(Cl)c1)c1cnc2c(Cl)cccc2c1-c1cccc(Cl)c1 [Compound 7]
6.30 to 6.70 | < 6.30 | O=S(=O)(c1ccc(Cl)s1)c1cnc2cc(Cl)ccc2c1-c1ccc(F)cc1 [Compound 187]
> 6.70 | < 6.30 | O=S(=O)(c1ccc(F)cc1)c1cnc2cc(Cl)ccc2c1-c1ccc(F)cc1 [Compound 179]
6.30 to 6.70 | < 6.30 | COc1ccc(-c2c(S(=O)(=O)c3cccc(F)c3)cnc3cc(F)ccc23)cc1 [Compound 42]
> 6.70 | < 6.30 | O=S(=O)(c1ccc(F)c(F)c1)c1cnc2ccccc2c1-c1cccc(F)c1 [Compound 240]
> 6.70 | > 6.70 | N#Cc1cccc(S(=O)(=O)c2cnc3cc(F)ccc3c2-c2cccc(Cl)c2)c1 [Compound 91]
> 6.70 | < 6.30 | O=S(=O)(c1cccc(F)c1)c1cnc2cc(Cl)ccc2c1-c1ccc(F)cc1 [Compound 180]

pKi [1] | pKi [2] | Structure (SMILES)
> 6.70 | < 6.30 | O=S(=O)(c1cc(Cl)cc(Cl)c1)c1cnc2c(F)cccc2c1-c1cccc(F)c1 [Compound 106]
> 6.70 | 6.30 to 6.70 | N#Cc1cc(F)cc(S(=O)(=O)c2cnc3cc(Cl)ccc3c2-c2cccc(Cl)c2)c1 [Compound 250]
> 6.70 | < 6.30 | O=S(=O)(c1ccc(F)c(F)c1)c1cnc2cc(F)ccc2c1-c1ccc(F)c(F)c1 [Compound 251]
> 6.70 | > 6.70 | O=S(=O)(c1ccc(F)c(F)c1)c1cnc2c(F)cccc2c1-c1ccc(F)cc1 [Compound 123]
6.30 to 6.70 | < 6.30 | N#Cc1cccc(S(=O)(=O)c2cnc3cc(C#N)ccc3c2-c2ccc(Cl)cc2)c1 [Compound 191]
> 6.70 | < 6.30 | COc1cccc(-c2c(S(=O)(=O)c3cc(F)cc(F)c3)cnc3cc(F)ccc23)c1 [Compound 90]
6.30 to 6.70 | 6.30 to 6.70 | O=S(=O)(c1ccc(F)c(F)c1)c1cnc2cc(F)ccc2c1-c1cccc(Cl)c1 [Compound 97]
> 6.70 | < 6.30 | COc1ccc(-c2c(S(=O)(=O)c3ccc(C)c(C)c3)cnc3cc(F)ccc23)cc1 [Compound 77]
< 6.30 | < 6.30 | N#Cc1ccc2ncc(S(=O)(=O)c3cc(Cl)cc(Cl)c3)c(-c3ccccc3F)c2c1 [Compound 200]
6.30 to 6.70 | < 6.30 | COc1ccc(S(=O)(=O)c2cnc3ccc(F)cc3c2-c2cccc(F)c2)cc1 [Compound 30]
> 6.70 | 6.30 to 6.70 | COc1ccc(S(=O)(=O)c2cnc3cc(F)ccc3c2-c2cccc(Cl)c2)cc1Cl [Compound 47]
> 6.70 | < 6.30 | COc1ccc(-c2c(S(=O)(=O)c3cc(Cl)cc(Cl)c3)cnc3ccc(F)cc23)cc1 [Compound 125]
> 6.70 | 6.30 to 6.70 | Cc1ccc(S(=O)(=O)c2cnc3ccccc3c2-c2ccc(Cl)cc2)cc1 [Compound 1, 4-(4-chloro-phenyl)-3-(4-methyl-benzenesulfonyl)-quinoline]
< 6.30 | < 6.30 | O=S(=O)(c1cc(F)cc(F)c1)c1cnc2ccc(F)cc2c1-c1cccc(Cl)c1 [Compound 64]
> 6.70 | < 6.30 | O=S(=O)(c1ccc(F)c(Cl)c1)c1cnc2c(F)c(Cl)ccc2c1-c1ccc(Cl)cc1 [Compound 197]
6.30 to 6.70 | < 6.30 | COc1ccc(S(=O)(=O)c2cnc3ccc(F)cc3c2-c2ccc(F)cc2)cc1 [Compound 143]
> 6.70 | < 6.30 | Cc1ccc(S(=O)(=O)c2cnc3ccc(F)cc3c2-c2cccc(Cl)c2)cc1F [Compound 127]
> 6.70 | < 6.30 | O=S(=O)(c1cc(Cl)cc(Cl)c1)c1cnc2ccc(F)cc2c1-c1cccc(Cl)c1 [Compound 160]
< 6.30 | < 6.30 | COc1ccc(-c2c(S(=O)(=O)c3ccc(F)cc3)cnc3ccc(F)cc23)cc1 [Compound 27]
> 6.70 | 6.30 to 6.70 | O=S(=O)(c1ccc(F)c(Cl)c1)c1cnc2ccc(F)cc2c1-c1ccc(Cl)cc1 [Compound 153]
> 6.70 | 6.30 to 6.70 | N#Cc1cccc(S(=O)(=O)c2cnc3ccc(F)cc3c2-c2cccc(F)c2)c1 [Compound 67]

pKi [1] | pKi [2] | Structure (SMILES)
> 6.70 | < 6.30 | O=S(=O)(c1ccc(F)c(F)c1)c1cnc2c(F)cccc2c1-c1cccc(Cl)c1 [Compound 259]
> 6.70 | > 6.70 | O=S(=O)(c1ccc(F)c(F)c1)c1cnc2c(F)cccc2c1-c1cccc(F)c1 [Compound 121]
6.30 to 6.70 | < 6.30 | COc1cccc(S(=O)(=O)c2cnc3cc(F)ccc3c2-c2cccc(F)c2)c1 [Compound 95]
> 6.70 | < 6.30 | O=S(=O)(c1ccc(F)c(F)c1)c1cnc2ccccc2c1-c1ccc(F)cc1 [Compound 237]
> 6.70 | < 6.30 | O=S(=O)(c1ccc(F)c(F)c1)c1cnc2cc(F)ccc2c1-c1ccccc1F [Compound 261]
> 6.70 | < 6.30 | O=S(=O)(c1ccc(F)c(F)c1)c1cnc2c(F)cccc2c1-c1ccc(F)c(F)c1 [Compound 238]
> 6.70 | < 6.30 | COc1cccc(-c2c(S(=O)(=O)c3ccc(C)c(F)c3)cnc3c(F)cccc23)c1 [Compound 113]
> 6.70 | < 6.30 | N#Cc1cc(S(=O)(=O)c2cnc3ccccc3c2-c2ccc(F)cc2)ccc1F [Compound 211]
> 6.70 | < 6.30 | O=S(=O)(c1cc(Cl)cc(Cl)c1)c1cnc2c(F)cccc2c1-c1ccc(F)c(F)c1 [Compound 220]
> 6.70 | < 6.30 | Cc1ccc(S(=O)(=O)c2cnc3cc(F)ccc3c2-c2cccc(F)c2)cc1Cl [Compound 94]
6.30 to 6.70 | < 6.30 | COc1cccc(-c2c(S(=O)(=O)c3cc(F)cc(F)c3)cnc3ccc(F)cc23)c1 [Compound 134]
> 6.70 | 6.30 to 6.70 | O=S(=O)(c1cccc(F)c1)c1cnc2c(F)cccc2c1-c1cccc(Cl)c1 [Compound 58]
< 6.30 | < 6.30 | COc1ccc(S(=O)(=O)c2cnc3cc(F)ccc3c2-c2cccc(Cl)c2)cc1OC [Compound 162]
> 6.70 | < 6.30 | N#Cc1cc(F)cc(S(=O)(=O)c2cnc3cc(Cl)ccc3c2-c2ccc(Cl)cc2)c1 [Compound 269]
> 6.70 | < 6.30 | O=S(=O)(c1ccc(F)c(F)c1)c1cnc2cc(Cl)ccc2c1-c1ccc(F)cc1 [Compound 182]
> 6.70 | < 6.30 | N#Cc1cc(S(=O)(=O)c2cnc3cc(F)ccc3c2-c2ccc(Cl)cc2)ccc1F [Compound 274]
> 6.70 | < 6.30 | Cc1ccc(S(=O)(=O)c2cnc3ccc(F)cc3c2-c2ccc(F)cc2)cc1Cl [Compound 142]
> 6.70 | < 6.30 | COc1cccc(-c2c(S(=O)(=O)c3ccc(F)cc3)cnc3c(F)cccc23)c1 [Compound 23]
> 6.70 | < 6.30 | Cc1ccc(S(=O)(=O)c2cnc3cc(F)ccc3c2-c2cccc(Cl)c2)cc1F [Compound 84]
